Broadly, the Kd is the concentration at which binding is half-saturated.

In the assay the target is human insulin (hINS) (Homo sapiens, UniProt P01308). The assay is described as follows: isothermal titration calorimetry. The assay is classed as binding.
Chain of human insulin (hINS) (P01308 25-54): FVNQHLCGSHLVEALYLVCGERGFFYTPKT
Chain of human insulin (hINS) (P01308 90-110): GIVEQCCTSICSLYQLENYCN

Regarding `Oc1ccc(/C=C/c2cc(O)cc(O)c2)cc1` [resveratrol, trans-3,4,5-trihydroxystilbene], the affinity, expressed as Kd, was 12.8 µM. In other words, the double-digit micromolar range.

Values taken from doi:10.1101/611376v1 (biorxiv, 2019).
